# Results: PubChem BioAssay (NCI)
#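 Where inhibition never reached the appropriate level, the endpoint shown equals the highest concentration tested. Otherwise, values were interpolated linearly from a five-concentration, 48-hour dose response in 96-well plates. TGI: total growth inhibition.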
# Legend:
# Assay in all cases: NCI tumour cell line growth inhibition, 48 h
# LXFL 529 NSCLC = test system: LXFL 529 NSCLC
# K-562 leukemia = test system: K-562 leukemia
# SNB-78 CNS = test system: SNB-78 CNS
# UO-31 renal = test system: UO-31 renal
# MOLT-4 leukemia = test system: MOLT-4 leukemia
# MALME-3M melanoma = test system: MALME-3M melanoma
# SF-539 CNS = test system: SF-539 CNS
# NCI-H23 lung = test system: NCI-H23 lung
# UACC-62 melanoma = test system: UACC-62 melanoma
# COLO 205 colon = test system: COLO 205 colon
# SR leukemia = test system: SR leukemia
# RPMI-8226 leukemia = test system: RPMI-8226 leukemia
# SN12C renal = test system: SN12C renal
# ACHN renal = test system: ACHN renal
# HOP-62 NSCLC = test system: HOP-62 NSCLC
# CAKI-1 renal = test system: CAKI-1 renal
# NCI-H226 lung = test system: NCI-H226 lung
# A498 renal = test system: A498 renal
# SK-MEL-2 melanoma = test system: SK-MEL-2 melanoma
# DMS 273 small cell lung = test system: DMS 273 small cell lung
# SK-MEL-28 melanoma = test system: SK-MEL-28 melanoma
# XF 498 CNS = test system: XF 498 CNS
# IGROV1 ovarian = test system: IGROV1 ovarian
# SK-OV-3 ovarian = test system: SK-OV-3 ovarian
# M14 melanoma = test system: M14 melanoma
# HCC-2998 colon = test system: HCC-2998 colon
# CCRF-CEM leukemia = test system: CCRF-CEM leukemia
# HCT-116 colon = test system: HCT-116 colon
# SF-268 CNS = test system: SF-268 CNS
# 786-0 renal = test system: 786-0 renal
# NCI-H522 lung = test system: NCI-H522 lung
# SNB-75 CNS = test system: SNB-75 CNS
# HL-60(TB) leukemia = test system: HL-60(TB) leukemia
# M19-MEL melanoma = test system: M19-MEL melanoma
# HOP-92 NSCLC = test system: HOP-92 NSCLC
# DMS 114 small cell lung = test system: DMS 114 small cell lung
# DLD-1 colon = test system: DLD-1 colon
# OVCAR-4 ovarian = test system: OVCAR-4 ovarian
# U251 CNS = test system: U251 CNS
# SNB-19 CNS = test system: SNB-19 CNS
# HOP-18 NSCLC = test system: HOP-18 NSCLC
# KM20L2 colon = test system: KM20L2 colon
# HT29 colon = test system: HT29 colon
# NCI-H460 lung = test system: NCI-H460 lung
# HCT-15 colon = test system: HCT-15 colon
# SW-620 colon = test system: SW-620 colon
# OVCAR-3 ovarian = test system: OVCAR-3 ovarian
# OVCAR-5 ovarian = test system: OVCAR-5 ovarian
# SF-295 CNS = test system: SF-295 CNS
# EKVX NSCLC = test system: EKVX NSCLC
# OVCAR-8 ovarian = test system: OVCAR-8 ovarian
# RXF 393 renal = test system: RXF 393 renal
# A549 NSCLC = test system: A549 NSCLC
# UACC-257 melanoma = test system: UACC-257 melanoma
# RXF-631 renal = test system: RXF-631 renal
# LOX IMVI melanoma = test system: LOX IMVI melanoma
# TK-10 renal = test system: TK-10 renal
# SK-MEL-5 melanoma = test system: SK-MEL-5 melanoma
# KM12 colon = test system: KM12 colon
# NCI/ADR-RES ovarian = test system: NCI/ADR-RES ovarian
# P388/ADR leukemia = test system: P388/ADR leukemia
# MCF7 breast = test system: MCF7 breast
# SN12K1 renal = test system: SN12K1 renal
# P388 leukemia = test system: P388 leukemia
structure (smiles),measurement,setting,value
Cc1ncc(CBr)c(CBr)c1O,TGI,LXFL 529 NSCLC,> 100 µM
same,TGI,K-562 leukemia,> 100 µM
same,TGI,SNB-78 CNS,> 100 µM
same,TGI,UO-31 renal,> 100 µM
same,TGI,MOLT-4 leukemia,> 100 µM
same,TGI,MALME-3M melanoma,> 100 µM
same,TGI,SF-539 CNS,> 100 µM
same,TGI,NCI-H23 lung,> 100 µM
same,TGI,UACC-62 melanoma,> 100 µM
same,TGI,COLO 205 colon,> 100 µM
same,TGI,SR leukemia,> 100 µM
same,TGI,RPMI-8226 leukemia,> 100 µM
same,TGI,SN12C renal,> 100 µM
same,TGI,ACHN renal,> 100 µM
same,TGI,HOP-62 NSCLC,> 100 µM
same,TGI,CAKI-1 renal,> 100 µM
same,TGI,NCI-H226 lung,> 100 µM
same,TGI,A498 renal,> 100 µM
same,TGI,SK-MEL-2 melanoma,> 100 µM
same,TGI,DMS 273 small cell lung,> 100 µM
same,TGI,SK-MEL-28 melanoma,> 100 µM
same,TGI,XF 498 CNS,> 100 µM
same,TGI,IGROV1 ovarian,> 100 µM
same,TGI,SK-OV-3 ovarian,> 100 µM
same,TGI,M14 melanoma,> 100 µM
same,TGI,HCC-2998 colon,> 100 µM
same,TGI,CCRF-CEM leukemia,> 100 µM
same,TGI,HCT-116 colon,> 100 µM
same,TGI,SF-268 CNS,> 100 µM
same,TGI,786-0 renal,> 100 µM
same,TGI,NCI-H522 lung,> 100 µM
same,TGI,SNB-75 CNS,> 100 µM
same,TGI,HL-60(TB) leukemia,> 100 µM
same,TGI,M19-MEL melanoma,> 100 µM
same,TGI,HOP-92 NSCLC,> 100 µM
same,TGI,DMS 114 small cell lung,> 100 µM
same,TGI,DLD-1 colon,> 100 µM
same,TGI,OVCAR-4 ovarian,> 100 µM
O=C(Cc1nc2ccccc2o1)C(=O)Nc1ccc(Cl)cc1Cl,TGI,LXFL 529 NSCLC,> 100 µM
same,TGI,K-562 leukemia,> 100 µM
same,TGI,SNB-78 CNS,> 100 µM
same,TGI,UO-31 renal,> 100 µM
same,TGI,U251 CNS,> 100 µM
same,TGI,SNB-19 CNS,> 100 µM
same,TGI,HOP-18 NSCLC,> 100 µM
same,TGI,MALME-3M melanoma,> 100 µM
same,TGI,SF-539 CNS,> 100 µM
same,TGI,KM20L2 colon,> 100 µM
same,TGI,NCI-H23 lung,> 100 µM
same,TGI,UACC-62 melanoma,> 100 µM
same,TGI,COLO 205 colon,> 100 µM
same,TGI,SR leukemia,51.6 µM
same,TGI,HT29 colon,> 100 µM
same,TGI,RPMI-8226 leukemia,> 100 µM
same,TGI,SN12C renal,> 100 µM
same,TGI,NCI-H460 lung,> 100 µM
same,TGI,ACHN renal,> 100 µM
same,TGI,HOP-62 NSCLC,> 100 µM
same,TGI,CAKI-1 renal,> 100 µM
same,TGI,NCI-H226 lung,> 100 µM
same,TGI,A498 renal,> 100 µM
same,TGI,SK-MEL-2 melanoma,> 100 µM
same,TGI,HCT-15 colon,> 100 µM
same,TGI,DMS 273 small cell lung,> 100 µM
same,TGI,SK-MEL-28 melanoma,> 100 µM
same,TGI,IGROV1 ovarian,> 100 µM
same,TGI,SK-OV-3 ovarian,> 100 µM
same,TGI,M14 melanoma,> 100 µM
same,TGI,SW-620 colon,> 100 µM
same,TGI,HCC-2998 colon,> 100 µM
same,TGI,OVCAR-3 ovarian,> 100 µM
same,TGI,HCT-116 colon,> 100 µM
same,TGI,SF-268 CNS,> 100 µM
same,TGI,OVCAR-5 ovarian,> 100 µM
same,TGI,786-0 renal,> 100 µM
same,TGI,SNB-75 CNS,> 100 µM
same,TGI,M19-MEL melanoma,> 100 µM
same,TGI,SF-295 CNS,> 100 µM
same,TGI,HOP-92 NSCLC,> 100 µM
same,TGI,EKVX NSCLC,> 100 µM
same,TGI,OVCAR-8 ovarian,> 100 µM
same,TGI,DMS 114 small cell lung,> 100 µM
same,TGI,DLD-1 colon,> 100 µM
same,TGI,RXF 393 renal,> 100 µM
same,TGI,OVCAR-4 ovarian,> 100 µM
same,TGI,A549 NSCLC,> 100 µM
same,TGI,UACC-257 melanoma,> 100 µM
CC1=C(C(=O)Nc2ccc(C)cc2)C(c2cccc([N+](=O)[O-])c2)C(C(=O)Nc2ccc(C)cc2)=C(C)N1,TGI,LXFL 529 NSCLC,> 100 µM
same,TGI,K-562 leukemia,63.5 µM
same,TGI,SNB-78 CNS,> 100 µM
same,TGI,UO-31 renal,> 100 µM
same,TGI,MOLT-4 leukemia,38.5 µM
same,TGI,U251 CNS,75.6 µM
same,TGI,SNB-19 CNS,> 100 µM
same,TGI,HOP-18 NSCLC,80.2 µM
same,TGI,MALME-3M melanoma,77.2 µM
same,TGI,SF-539 CNS,36.9 µM
same,TGI,KM20L2 colon,48 µM
same,TGI,NCI-H23 lung,70.4 µM
same,TGI,UACC-62 melanoma,30.4 µM
same,TGI,RXF-631 renal,91.3 µM
same,TGI,COLO 205 colon,28.1 µM
same,TGI,LOX IMVI melanoma,32.3 µM
same,TGI,SR leukemia,65.6 µM
same,TGI,HT29 colon,49.4 µM
same,TGI,SN12C renal,67.4 µM
same,TGI,NCI-H460 lung,60.8 µM
same,TGI,ACHN renal,80.8 µM
same,TGI,HOP-62 NSCLC,89.4 µM
same,TGI,CAKI-1 renal,> 100 µM
same,TGI,NCI-H226 lung,> 100 µM
same,TGI,A498 renal,55.3 µM
same,TGI,SK-MEL-2 melanoma,54.8 µM
same,TGI,HCT-15 colon,> 100 µM
same,TGI,DMS 273 small cell lung,> 100 µM
same,TGI,SK-MEL-28 melanoma,> 100 µM
same,TGI,XF 498 CNS,50.7 µM
same,TGI,IGROV1 ovarian,66.8 µM
same,TGI,TK-10 renal,> 100 µM
same,TGI,SK-OV-3 ovarian,> 100 µM
same,TGI,M14 melanoma,49.2 µM
same,TGI,SW-620 colon,> 100 µM
same,TGI,HCC-2998 colon,> 100 µM
same,TGI,OVCAR-3 ovarian,95.5 µM
same,TGI,SK-MEL-5 melanoma,44.3 µM
same,TGI,CCRF-CEM leukemia,50.7 µM
same,TGI,HCT-116 colon,> 100 µM
same,TGI,KM12 colon,40.2 µM
same,TGI,SF-268 CNS,52.2 µM
same,TGI,OVCAR-5 ovarian,> 100 µM
same,TGI,786-0 renal,> 100 µM
same,TGI,NCI-H522 lung,93.8 µM
same,TGI,SNB-75 CNS,81.4 µM
same,TGI,HL-60(TB) leukemia,39.4 µM
same,TGI,M19-MEL melanoma,63.4 µM
same,TGI,SF-295 CNS,82.3 µM
same,TGI,EKVX NSCLC,86.1 µM
same,TGI,OVCAR-8 ovarian,> 100 µM
same,TGI,DMS 114 small cell lung,74.2 µM
same,TGI,DLD-1 colon,> 100 µM
same,TGI,RXF 393 renal,63.2 µM
same,TGI,OVCAR-4 ovarian,> 100 µM
same,TGI,A549 NSCLC,> 100 µM
same,TGI,UACC-257 melanoma,56.7 µM
NC(CSCSCC(N)C(=O)O)C(=O)O (stereo unspecified),TGI,K-562 leukemia,> 225 µM
same,TGI,SNB-78 CNS,> 104 µM
same,TGI,UO-31 renal,> 225 µM
same,TGI,MOLT-4 leukemia,> 225 µM
same,TGI,U251 CNS,> 225 µM
same,TGI,SNB-19 CNS,> 225 µM
same,TGI,HOP-18 NSCLC,> 225 µM
same,TGI,MALME-3M melanoma,> 225 µM
same,TGI,NCI/ADR-RES ovarian,> 104 µM
same,TGI,SF-539 CNS,> 225 µM
same,TGI,KM20L2 colon,> 225 µM
same,TGI,NCI-H23 lung,> 225 µM
same,TGI,UACC-62 melanoma,> 225 µM
same,TGI,COLO 205 colon,> 225 µM
same,TGI,LOX IMVI melanoma,> 225 µM
same,TGI,HT29 colon,> 225 µM
same,TGI,RPMI-8226 leukemia,> 225 µM
same,TGI,SN12C renal,> 225 µM
same,TGI,NCI-H460 lung,> 225 µM
same,TGI,HOP-62 NSCLC,> 225 µM
same,TGI,CAKI-1 renal,> 225 µM
same,TGI,NCI-H226 lung,> 225 µM
same,TGI,P388/ADR leukemia,> 225 µM
same,TGI,A498 renal,> 225 µM
same,TGI,SK-MEL-2 melanoma,> 225 µM
same,TGI,HCT-15 colon,> 225 µM
same,TGI,DMS 273 small cell lung,> 225 µM
same,TGI,SK-MEL-28 melanoma,> 225 µM
same,TGI,XF 498 CNS,> 225 µM
same,TGI,IGROV1 ovarian,> 225 µM
same,TGI,SK-OV-3 ovarian,> 225 µM
same,TGI,SW-620 colon,> 225 µM
same,TGI,HCC-2998 colon,> 225 µM
same,TGI,OVCAR-3 ovarian,> 225 µM
same,TGI,SK-MEL-5 melanoma,> 225 µM
same,TGI,CCRF-CEM leukemia,> 71.2 µM
same,TGI,MCF7 breast,> 225 µM
same,TGI,HCT-116 colon,> 225 µM
same,TGI,KM12 colon,> 104 µM
same,TGI,SF-268 CNS,> 225 µM
same,TGI,OVCAR-5 ovarian,> 225 µM
same,TGI,NCI-H522 lung,> 225 µM
same,TGI,SNB-75 CNS,> 225 µM
same,TGI,HL-60(TB) leukemia,> 225 µM
same,TGI,M19-MEL melanoma,> 225 µM
same,TGI,SF-295 CNS,> 225 µM
same,TGI,HOP-92 NSCLC,> 225 µM
same,TGI,SN12K1 renal,> 225 µM
same,TGI,P388 leukemia,> 71.2 µM
same,TGI,EKVX NSCLC,> 225 µM
same,TGI,OVCAR-8 ovarian,> 22.5 µM
same,TGI,DMS 114 small cell lung,> 225 µM
same,TGI,DLD-1 colon,> 225 µM
same,TGI,RXF 393 renal,> 225 µM
same,TGI,OVCAR-4 ovarian,> 225 µM
same,TGI,A549 NSCLC,> 225 µM
same,TGI,UACC-257 melanoma,> 225 µM
